Reference: PubChem BioAssay (NCI)
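These data come from cells grown in 96-well plates and exposed to compound for 48 hours at five concentrations. TGI denotes the concentration required for complete inhibition of growth.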

Assays:
Experiment in all cases: NCI tumour cell line growth inhibition, 48 h
ACHN renal = tested on: ACHN renal
HOP-62 NSCLC = tested on: HOP-62 NSCLC
LOX IMVI melanoma = tested on: LOX IMVI melanoma
SR leukemia = tested on: SR leukemia
786-0 renal = tested on: 786-0 renal
CCRF-CEM leukemia = tested on: CCRF-CEM leukemia
SF-295 CNS = tested on: SF-295 CNS
MDA-MB-231 breast = tested on: MDA-MB-231 breast
SN12C renal = tested on: SN12C renal
CAKI-1 renal = tested on: CAKI-1 renal
HCT-116 colon = tested on: HCT-116 colon
SNB-75 CNS = tested on: SNB-75 CNS
NCI-H23 lung = tested on: NCI-H23 lung
KM12 colon = tested on: KM12 colon
OVCAR-8 ovarian = tested on: OVCAR-8 ovarian
U251 CNS = tested on: U251 CNS
HCT-15 colon = tested on: HCT-15 colon
TK-10 renal = tested on: TK-10 renal
MDA-N = tested on: MDA-N
UO-31 renal = tested on: UO-31 renal
MALME-3M melanoma = tested on: MALME-3M melanoma
IGROV1 ovarian = tested on: IGROV1 ovarian
PC-3 prostate = tested on: PC-3 prostate
HT29 colon = tested on: HT29 colon
MCF7 breast = tested on: MCF7 breast
COLO 205 colon = tested on: COLO 205 colon
NCI-H522 lung = tested on: NCI-H522 lung
HS 578T breast = tested on: HS 578T breast
SW-620 colon = tested on: SW-620 colon
M14 melanoma = tested on: M14 melanoma
MOLT-4 leukemia = tested on: MOLT-4 leukemia
SK-OV-3 ovarian = tested on: SK-OV-3 ovarian
RXF 393 renal = tested on: RXF 393 renal
K-562 leukemia = tested on: K-562 leukemia
UACC-257 melanoma = tested on: UACC-257 melanoma
HOP-92 NSCLC = tested on: HOP-92 NSCLC
T-47D breast = tested on: T-47D breast
A549 NSCLC = tested on: A549 NSCLC
SF-268 CNS = tested on: SF-268 CNS
OVCAR-4 ovarian = tested on: OVCAR-4 ovarian
MDA-MB-435 = tested on: MDA-MB-435
RPMI-8226 leukemia = tested on: RPMI-8226 leukemia
SK-MEL-2 melanoma = tested on: SK-MEL-2 melanoma
SK-MEL-28 melanoma = tested on: SK-MEL-28 melanoma
EKVX NSCLC = tested on: EKVX NSCLC
BT-549 breast = tested on: BT-549 breast
OVCAR-3 ovarian = tested on: OVCAR-3 ovarian
HCC-2998 colon = tested on: HCC-2998 colon
NCI-H460 lung = tested on: NCI-H460 lung
A498 renal = tested on: A498 renal
HL-60(TB) leukemia = tested on: HL-60(TB) leukemia
NCI-H226 lung = tested on: NCI-H226 lung
SNB-19 CNS = tested on: SNB-19 CNS
UACC-62 melanoma = tested on: UACC-62 melanoma
DU-145 prostate = tested on: DU-145 prostate
SK-MEL-5 melanoma = tested on: SK-MEL-5 melanoma
NCI/ADR-RES ovarian = tested on: NCI/ADR-RES ovarian
OVCAR-5 ovarian = tested on: OVCAR-5 ovarian
SF-539 CNS = tested on: SF-539 CNS

Compound `CSc1nc(NC(C)C)c2c(n1)Sc1nc3ccccc3n1C2O` (configuration not stated) has a TGI (ACHN renal) of 81.8 µM, a TGI (HOP-62 NSCLC) greater than 100 µM and a TGI (LOX IMVI melanoma) greater than 100 µM. It also gave a TGI (SR leukemia) greater than 100 µM, a TGI (786-0 renal) greater than 100 µM and a TGI (CCRF-CEM leukemia) of 4.95 µM. The TGI (SF-295 CNS) was greater than 100 µM, the TGI (MDA-MB-231 breast) was greater than 100 µM and the TGI (SN12C renal) was greater than 100 µM. The TGI (CAKI-1 renal) was greater than 100 µM, the TGI (HCT-116 colon) was greater than 100 µM and the TGI (SNB-75 CNS) was 23.4 µM. It also gave a TGI (NCI-H23 lung) greater than 100 µM, a TGI (KM12 colon) greater than 100 µM and a TGI (OVCAR-8 ovarian) greater than 100 µM. For the same compound, the TGI (U251 CNS) was greater than 100 µM, the TGI (HCT-15 colon) was greater than 100 µM and the TGI (TK-10 renal) was greater than 100 µM. It also gave a TGI (MDA-N) of 11.9 µM, a TGI (UO-31 renal) of 27.8 µM and a TGI (MALME-3M melanoma) of 49.6 µM. The TGI (IGROV1 ovarian) was greater than 100 µM, the TGI (PC-3 prostate) was greater than 100 µM and the TGI (HT29 colon) was greater than 100 µM. The TGI (MCF7 breast) was greater than 100 µM, the TGI (COLO 205 colon) was 14.3 µM and the TGI (NCI-H522 lung) was 24.7 µM. For the same compound, the TGI (HS 578T breast) was 13.4 µM, the TGI (SW-620 colon) was 65.3 µM and the TGI (M14 melanoma) was greater than 100 µM. It also gave a TGI (MOLT-4 leukemia) of 14.1 µM, a TGI (SK-OV-3 ovarian) greater than 100 µM and a TGI (RXF 393 renal) of 30.4 µM. It also gave a TGI (K-562 leukemia) greater than 100 µM, a TGI (UACC-257 melanoma) greater than 100 µM and a TGI (HOP-92 NSCLC) greater than 100 µM. The TGI (T-47D breast) was 22.4 µM, the TGI (A549 NSCLC) was greater than 100 µM and the TGI (SF-268 CNS) was greater than 100 µM. It also gave a TGI (OVCAR-4 ovarian) greater than 100 µM, a TGI (MDA-MB-435) of 5.02 µM and a TGI (RPMI-8226 leukemia) of 12.5 µM. It also gave a TGI (SK-MEL-2 melanoma) of 52 µM, a TGI (SK-MEL-28 melanoma) greater than 100 µM and a TGI (EKVX NSCLC) greater than 100 µM. For the same compound, the TGI (BT-549 breast) was greater than 100 µM, the TGI (OVCAR-3 ovarian) was 5.88 µM and the TGI (HCC-2998 colon) was greater than 100 µM.

`COc1ccc2nc3n(c2c1)CCc1cc(OC)c(OC)cc1-3` showed a TGI (ACHN renal) greater than 100 µM, a TGI (HOP-62 NSCLC) greater than 100 µM and a TGI (LOX IMVI melanoma) greater than 100 µM. It also gave a TGI (786-0 renal) greater than 100 µM, a TGI (NCI-H460 lung) greater than 100 µM and a TGI (CCRF-CEM leukemia) greater than 100 µM. For the same compound, the TGI (SF-295 CNS) was greater than 100 µM, the TGI (MDA-MB-231 breast) was greater than 100 µM and the TGI (SN12C renal) was greater than 100 µM. For the same compound, the TGI (CAKI-1 renal) was greater than 100 µM, the TGI (HCT-116 colon) was greater than 100 µM and the TGI (SNB-75 CNS) was greater than 100 µM. It also gave a TGI (NCI-H23 lung) greater than 100 µM, a TGI (KM12 colon) greater than 100 µM and a TGI (OVCAR-8 ovarian) greater than 100 µM. The TGI (A498 renal) was greater than 100 µM, the TGI (U251 CNS) was greater than 100 µM and the TGI (HCT-15 colon) was greater than 100 µM. The TGI (TK-10 renal) was greater than 100 µM, the TGI (MDA-N) was greater than 100 µM and the TGI (MALME-3M melanoma) was greater than 100 µM. The TGI (PC-3 prostate) was greater than 100 µM, the TGI (HL-60(TB) leukemia) was greater than 100 µM and the TGI (HT29 colon) was 95.8 µM. For the same compound, the TGI (MCF7 breast) was greater than 100 µM, the TGI (COLO 205 colon) was 90.8 µM and the TGI (NCI-H522 lung) was greater than 100 µM. The TGI (HS 578T breast) was greater than 100 µM, the TGI (NCI-H226 lung) was greater than 100 µM and the TGI (SW-620 colon) was greater than 100 µM. It also gave a TGI (SNB-19 CNS) greater than 100 µM, a TGI (M14 melanoma) greater than 100 µM and a TGI (SK-OV-3 ovarian) greater than 100 µM. For the same compound, the TGI (RXF 393 renal) was greater than 100 µM, the TGI (K-562 leukemia) was greater than 100 µM and the TGI (UACC-257 melanoma) was greater than 100 µM. For the same compound, the TGI (HOP-92 NSCLC) was greater than 100 µM, the TGI (UACC-62 melanoma) was greater than 100 µM and the TGI (T-47D breast) was greater than 100 µM. The TGI (A549 NSCLC) was greater than 100 µM, the TGI (SF-268 CNS) was greater than 100 µM and the TGI (OVCAR-4 ovarian) was greater than 100 µM. The TGI (MDA-MB-435) was greater than 100 µM, the TGI (DU-145 prostate) was greater than 100 µM and the TGI (SK-MEL-5 melanoma) was 47.2 µM. For the same compound, the TGI (NCI/ADR-RES ovarian) was greater than 100 µM, the TGI (OVCAR-5 ovarian) was greater than 100 µM and the TGI (SK-MEL-2 melanoma) was greater than 100 µM. It also gave a TGI (SF-539 CNS) greater than 100 µM, a TGI (SK-MEL-28 melanoma) greater than 100 µM and a TGI (EKVX NSCLC) greater than 100 µM. It also gave a TGI (BT-549 breast) of 99.2 µM, a TGI (OVCAR-3 ovarian) greater than 100 µM and a TGI (HCC-2998 colon) of 52.9 µM.
